Measurements reported in patent publication US20230203045A1, “INHIBITORS OF NEK7 KINASE” (Halia Therapeutics, Inc., priority 2020, published 2023).

These compounds were tested against T1, full-length recombinant human NEK7 (Homo sapiens, UniProt Q8TDX7) (assay: NEK7 Enzymatic Assay). Details: casein substrate, [33P]-ATP, 2 hours at room temperature.
T1 construct: full-length recombinant human NEK7; GST (N); purchased SignalChem Nab 09-10G; host or cells: Sf9 insect cells (baculovirus)
Type: biochemical
Experimental: Casein substrate (from bovine milk, hydrolyzed and partially dephosphorylated mixture of α, β and κ caseins, obtained from Sigma Aldrich, catalogue #C4765, diluted in distilled water to a final concentration of 1 mg/mL) and full-length recombinant human NEK7 (expressed by baculovirus in Sf9 insect cells using a N-terminal GST tag, obtained from SignalChem, catalogue #Nab 09-10G, 0.1 μg/μL) were mixed in assay buffer (20 mM Hepes pH 7.5, 10 mM MgCl2, 1 mM EGTA, 0.02% Brij35, 0.02 mg/ml BSA, 0.1 mM Na3VO4, 2 mM DTT, 1% DMSO). Compounds of interest (serial 3-fold dilution in DMSO from 10 μM to 0.5 nM) or vehicle (1% DMSO) were dispensed into the kinase reaction mixture by Acoustic technology (Echo550; nanoliter range). After incubation at room temperature for 20 minutes, the kinase reaction was initiated by addition of [^33P]-ATP (specific activity 10 μCi/μl) and the mixture was incubated at room temperature for 2 hours. The reaction was then stopped by spotting the reaction mixture on strips of phosphocellulose P81 paper. Following washing, the radioactivity of the P81 paper was measured and kinase activity data were expressed as the percent remaining kinase activity in test samples compared to vehicle reactions. IC50 values and curve fits were obtained using Prism (GraphPad Software).

T1 sequence (Q8TDX7 whole entry): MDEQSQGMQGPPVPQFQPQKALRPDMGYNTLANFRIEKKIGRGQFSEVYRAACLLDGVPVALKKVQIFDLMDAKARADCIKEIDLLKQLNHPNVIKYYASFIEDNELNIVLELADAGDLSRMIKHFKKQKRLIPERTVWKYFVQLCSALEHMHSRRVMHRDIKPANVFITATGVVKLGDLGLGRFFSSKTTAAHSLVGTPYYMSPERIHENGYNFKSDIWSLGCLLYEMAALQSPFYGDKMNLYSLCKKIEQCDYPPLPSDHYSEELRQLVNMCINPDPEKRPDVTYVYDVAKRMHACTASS

SMILES	IC50
Nc1ncnc2c1c(-c1ccc(NC(=O)Nc3cc(C4(C(F)(F)F)CC4)no3)c(F)c1)nn2C1CC(O)C1 (stereo not drawn) [Example 46, 1-(4-(4-amino-1-(3-hydroxycyclobutyl)-1H-pyrazolo[3,4-d]pyrimidin-3-yl)-2-fluorophenyl)-3-(3-(1-(trifluoromethyl)cyclopropyl)isoxazol-5-yl)urea]	< 0.15 µM
CC(C)(C)c1csc(NC(=O)Nc2ccc(-c3nn(C4CC4)c4ncnc(N)c34)cc2F)n1 [Example 34, 1-(4-(4-amino-1-cyclopropyl-1H-pyrazolo[3,4-d]pyrimidin-3-yl)-2-fluorophenyl)-3-(4-(tert-butyl)thiazol-2-yl)urea]	> 0.501 µM
CCC(CC)c1cc(NC(=O)Nc2ccc(-c3nn(C4CC4)c4ncnc(N)c34)cc2F)on1 [Example 40, 1-(4-(4-amino-1-cyclopropyl-1H-pyrazolo[3,4-d]pyrimidin-3-yl)-2-fluorophenyl)-3-(3-(pentan-3-yl)isoxazol-5-yl)urea]	0.301 to 0.5 µM
CC(C)(C)c1nnc(NC(=O)Nc2ccc(-c3nn(C4CC4)c4ncnc(N)c34)cc2F)o1 [Example 36, 1-(4-(4-amino-1-cyclopropyl-1H-pyrazolo[3,4-d]pyrimidin-3-yl)-2-fluorophenyl)-3-(5-(tert-butyl)-1,3,4-oxadiazol-2-yl)urea]	> 0.501 µM
CC(C)(C)c1cc(NC(=O)Nc2ccc(-c3nn(C4CC4)c4ccnc(N)c34)cc2)on1 [Example 31, 1-(4-(4-amino-1-cyclopropyl-1H-pyrazolo[4,3-c]pyridin-3-yl)phenyl)-3-(3-(tert-butyl)isoxazol-5-yl)urea]	> 0.501 µM
CC(C)(C)n1cnc(NC(=O)Nc2ccc(-c3nn(C4CC4)c4ncnc(N)c34)cc2F)n1 [Example 38, 1-(4-(4-amino-1-cyclopropyl-1H-pyrazolo[3,4-d]pyrimidin-3-yl)-2-fluorophenyl)-3-(1-(tert-butyl)-1H-1,2,4-triazol-3-yl)urea]	> 0.501 µM
CC(C)c1cc(NC(=O)Nc2ccc(-c3nn(C4CC4)c4ncnc(N)c34)cc2F)on1 [Example 41, 1-(4-(4-amino-1-cyclopropyl-1H-pyrazolo[3,4-d]pyrimidin-3-yl)-2-fluorophenyl)-3-(3-isopropylisoxazol-5-yl)urea]	< 0.15 µM
Cn1nc(-c2ccc(NC(=O)Nc3cc(C(C)(C)C)no3)c(Cl)c2)c2c(N)ncnc21 [Example 28, 1-(4-(4-amino-1-methyl-1H-pyrazolo[3,4-d]pyrimidin-3-yl)-2-chlorophenyl)-3-(3-(tert-butyl)isoxazol-5-yl)urea]	> 0.501 µM
CC(C)(C)c1cc(NC(=O)Nc2ccc(-c3nn(C4CC(F)(F)C4)c4ncnc(N)c34)cc2F)on1 [Example 16, 1-(4-(4-amino-1-(3,3-difluorocyclobutyl)-1H-pyrazolo[3,4-d]pyrimidin-3-yl)-2-fluorophenyl)-3-(3-(tert-butyl)isoxazol-5-yl)urea]	> 0.501 µM
CCc1cc(NC(=O)Nc2ccc(-c3nn(C4CC4)c4ncnc(N)c34)cc2F)on1 [Example 42, 1-(4-(4-amino-1-cyclopropyl-1H-pyrazolo[3,4-d]pyrimidin-3-yl)-2-fluorophenyl)-3-(3-ethylisoxazol-5-yl)urea]	0.151 to 0.3 µM
CC(C)(C)c1nsc(NC(=O)Nc2ccc(-c3nn(C4CC4)c4ncnc(N)c34)cc2F)n1 [Example 37, 1-(4-(4-amino-1-cyclopropyl-1H-pyrazolo[3,4-d]pyrimidin-3-yl)-2-fluorophenyl)-3-(3-(tert-butyl)-1,2,4-thiadiazol-5-yl)urea]	> 0.501 µM
CC(C)(C)c1cc(NC(=O)Nc2ccc(-c3nn(C4CC4)c4ncnc(N)c34)cc2F)sn1 [Example 35, 1-(4-(4-amino-1-cyclopropyl-1H-pyrazolo[3,4-d]pyrimidin-3-yl)-2-fluorophenyl)-3-(3-(tert-butyl)isothiazol-5-yl)urea]	> 0.501 µM

Other lines, results leading:

IC50	SMILES
> 0.501 µM	CN1CC(n2nc(-c3ccc(NC(=O)Nc4cc(C5(C(F)(F)F)CC5)on4)c(F)c3)c3c(N)ncnc32)C1 [Example 68, 1-(4-(4-amino-1-(1-methylazetidin-3-yl)-1H-pyrazolo[3,4-d]pyrimidin-3-yl)-2-fluorophenyl)-3-(5-(1-(trifluoromethyl)cyclopropyl)isoxazol-3-yl)urea]
0.301 to 0.5 µM	CC(C)(O)Cn1nc(-c2ccc(NC(=O)Nc3cc(C4(C(F)(F)F)CC4)on3)c(F)c2)c2c(N)ncnc21 [Example 67, 1-(4-(4-amino-1-(2-hydroxy-2-methylpropyl)-1H-pyrazolo[3,4-d]pyrimidin-3-yl)-2-fluorophenyl)-3-(5-(1-(trifluoromethyl)cyclopropyl)isoxazol-3-yl)urea]
> 0.501 µM	Nc1nccc2c1c(-c1ccc(NC(=O)Nc3cc(C4(C(F)(F)F)CC4)on3)c(F)c1)nn2C1CC1 [Example 61, 1-(4-(4-amino-1-cyclopropyl-1H-pyrazolo[4,3-c]pyridin-3-yl)-2-fluorophenyl)-3-(5-(1-(trifluoromethyl)cyclopropyl)isoxazol-3-yl)urea]
0.301 to 0.5 µM	Nc1ncnc2c1c(-c1cc(F)c(NC(=O)Nc3cc(C4(C(F)(F)F)CC4)on3)cc1F)nn2C1CC1 [Example 62, 1-(4-(4-amino-1-cyclopropyl-1H-pyrazolo[3,4-d]pyrimidin-3-yl)-2,5-difluorophenyl)-3-(5-(1-(trifluoromethyl)cyclopropyl)isoxazol-3-yl)urea]
> 0.501 µM	CN1CC(n2nc(-c3ccc(NC(=O)Nc4cc(C5(C(F)(F)F)CC5)no4)c(F)c3)c3c(N)ncnc32)C1 [Example 49, 1-(4-(4-amino-1-(1-methylazetidin-3-yl)-1H-pyrazolo[3,4-d]pyrimidin-3-yl)-2-fluorophenyl)-3-(3-(1-(trifluoromethyl)cyclopropyl)isoxazol-5-yl)urea]
< 0.15 µM	Nc1ncnc2c1c(-c1ccc(NC(=O)Nc3cc(C4(C(F)(F)F)CC4)no3)c(F)c1)nn2CCO [Example 55, 1-(4-(4-amino-1-(2-hydroxyethyl)-1H-pyrazolo[3,4-d]pyrimidin-3-yl)-2-fluorophenyl)-3-(3-(1-(trifluoromethyl)cyclopropyl)isoxazol-5-yl)urea]
0.151 to 0.3 µM	COCCn1nc(-c2ccc(NC(=O)Nc3cc(C4(C(F)(F)F)CC4)no3)c(F)c2)c2c(N)ncnc21 [Example 57, 1-(4-(4-amino-1-(2-methoxyethyl)-1H-pyrazolo[3,4-d]pyrimidin-3-yl)-2-fluorophenyl)-3-(3-(1-(trifluoromethyl)cyclopropyl)isoxazol-5-yl)urea]
< 0.15 µM	Nc1ncnc2c1c(-c1ccc(NC(=O)Nc3cc(C4(C(F)(F)F)CC4)on3)c(F)c1)nn2C1CC(O)C1 (stereo not drawn) [Example 60, 1-(4-(4-amino-1-(3-hydroxycyclobutyl)-1H-pyrazolo[3,4-d]pyrimidin-3-yl)-2-fluorophenyl)-3-(5-(1-(trifluoromethyl)cyclopropyl)isoxazol-3-yl)urea]
> 0.501 µM	Cc1cc(-c2nn(C3CC3)c3ncnc(N)c23)ccc1NC(=O)Nc1cc(C2(C(F)(F)F)CC2)on1 [Example 59, 1-(4-(4-amino-1-cyclopropyl-1H-pyrazolo[3,4-d]pyrimidin-3-yl)-2-methylphenyl)-3-(5-(1-(trifluoromethyl)cyclopropyl)isoxazol-3-yl)urea]
> 0.501 µM	Nc1ncnc2c1c(-c1ccc(NC(=O)Nc3cc(CO)no3)c(F)c1)nn2C1CC1 [Example 53, 1-(4-(4-amino-1-cyclopropyl-1H-pyrazolo[3,4-d]pyrimidin-3-yl)-2-fluorophenyl)-3-(3-(hydroxymethyl)isoxazol-5-yl)urea]
0.151 to 0.3 µM	Nc1ncnc2c1c(-c1ccc(NC(=O)Nc3cc(C4(C(F)(F)F)CC4)on3)nc1)nn2C1CC1 [Example 64, 1-(5-(4-amino-1-cyclopropyl-1H-pyrazolo[3,4-d]pyrimidin-3-yl)pyridin-2-yl)-3-(5-(1-(trifluoromethyl)cyclopropyl)isoxazol-3-yl)urea]
< 0.15 µM	CC(C)(C#N)c1cc(NC(=O)Nc2ccc(-c3nn(C4CC4)c4ncnc(N)c34)cc2F)on1 [Example 52, 1-(4-(4-amino-1-cyclopropyl-1H-pyrazolo[3,4-d]pyrimidin-3-yl)-2-fluorophenyl)-3-(3-(2-cyanopropan-2-yl)isoxazol-5-yl)urea]
0.301 to 0.5 µM	Nc1ncnc2c1c(-c1cc(F)c(NC(=O)Nc3cc(C4(C(F)(F)F)CC4)no3)cc1F)nn2C1CC1 [Example 50, 1-(4-(4-amino-1-cyclopropyl-1H-pyrazolo[3,4-d]pyrimidin-3-yl)-2,5-difluorophenyl)-3-(3-(1-(trifluoromethyl)cyclopropyl)isoxazol-5-yl)urea]
> 0.501 µM	Nc1ncnc2c1c(-c1ccc(NC(=O)Nc3cc(C4(C(F)(F)F)CC4)on3)c(CO)c1)nn2C1CC1 [Example 63, 1-(4-(4-amino-1-cyclopropyl-1H-pyrazolo[3,4-d]pyrimidin-3-yl)-2-(hydroxymethyl)phenyl)-3-(5-(1-(trifluoromethyl)cyclopropyl)isoxazol-3-yl)urea]
0.151 to 0.3 µM	Nc1nccc2c1c(-c1ccc(NC(=O)Nc3cc(C4(C(F)(F)F)CC4)no3)nc1)nn2C1CC1 [Example 54, 1-(5-(4-amino-1-cyclopropyl-1H-pyrazolo[4,3-c]pyridin-3-yl)pyridin-2-yl)-3-(3-(1-(trifluoromethyl)cyclopropyl)isoxazol-5-yl)urea]
